{"source": "patent US7416741B2", "about": "“Copper lowering treatment of inflammatory and fibrotic diseases” (The Regents of the University of Michigan, priority 2002, dated 2008)", "key": {"[1]": {"tested_on": "serum ceruloplasmin (Cp)", "test": "Copper status by serum ceruloplasmin (oxidase activity) in mice", "format": "in vivo, mouse", "conditions": "for Ceruloplasmin Values: Ex 1 Exp 2", "text": "Copper status. In the presence of TM therapy, copper status is difficult to assess by measuring serum copper directly, since a slowly turning over tripartite complex of TM, copper, and albumin accumulates, causing the serum copper to be elevated even though availability of copper is decreasing. However, the inventors have previously determined that serum ceruloplasmin (Cp) is a good surrogate marker of copper status (G J Brewer et al., Clin. Cancer, 6: 1-10 [2000]), because the liver secretes this copper containing protein into the blood at a rate dependent upon copper availability. Copper status was followed by assaying serum ceruloplasmin (Cp), by measuring its oxidase activity (K H Schosinsky et al., Clin. Chem., 20(12)1556-1563 [1974]). Blood was obtained from the tail vein of the mice. To avoid excessive bleeding, only one mouse from each group was bled at any time point during the study, and mice were rotated so that different mice were bled at the different time points. A Cp assay in all mice was done at time of sacrifice.\nCopper status. In the presence of TM therapy, copper status cannot be assessed by direct measurement of serum copper because of the accumulation of a tripartite complex of TM, copper, and albumin that turns over slowly, causing the serum copper to be increased even though availability of copper is decreasing. […] Copper status was monitored by assaying serum ceruloplasmin on the basis of its oxidase activity in blood from the tail vein. To avoid excessive bleeding, one mouse from each group was bled at each time point; mice were rotated so that different mice were bled. A ceruloplasmin assay was conducted in each mouse when it was killed."}, "[2]": {"tested_on": "carbon tetrachloride (CT) mouse model", "test": "Liver hydroxyproline and histology in the CT mouse model", "format": "in vivo", "conditions": "Ex 6", "description": "(§1) The carbon tetrachloride (CT) mouse model produces much more liver fibrosis (cirrhosis) than the Con A model. In this model carbon tetrachloride is injected intraperitoneally twice weekly, and after 12 weeks, a well-established cirrhosis should be present. This can be evaluated histologically, and can be quantitated by measuring liver hydroxyproline, a major amino acid in collagen. The TM was started in TM treated animals at the beginning of week 5 and the animals were sacrificed at week 12."}, "[3]": {"tested_on": "cancer patients", "test": "TM therapy in cancer patients", "format": "in vivo, human", "conditions": "180 mg/day induction dose", "description": "TM has also shown positive effects in spontaneous canine cancers. A clinical phase ½ study of a variety of metastatic and advanced cancers has shown positive results, with an average of 11 months freedom from progression in evaluable patients, and long term stabilization in three patients (G J Brewer et al., Clin. Cancer Res., 6:1-10 [2000]). A number of phase 2 studies of specific cancers are under way.\nThe current cancer therapy induction dose for TM is 40 mg 3×daily with meals and 60 mg at bedtime separated from food (180 mg/day). At this dose, it takes 15-25 days to induce cancer patients into the Cp target range. This same induction dose is used for IPF patients. All patients remain on their induction doses until they reach target Cp levels, then are switched to maintenance therapy."}, "[4]": {"tested_on": "rats", "conditions": "cited from earlier work"}, "[5]": {"tested_on": "carbon tetrachloride (CT) mouse model", "test": "Serum ALT in the carbon tetrachloride (CT) mouse model of liver damage", "format": "in vivo", "conditions": "Ex 6; TM from week 5; sacrifice week 12; p<0.0008; protection only partial", "description": "as §1\nThere were 4 animals in the CT group, 4 in the CT/TM group, 2 in the olive oil/TM group, and 1 in the TM group. Since there were so few animals in the last two groups, and since their data were generally similar, they were combined."}, "[6]": {"tested_on": "α-smooth muscle actin", "test": "α-Smooth muscle actin assay (ELISA) in lung homogenates", "format": "in vivo, mouse", "conditions": "Ex 2 Exp 2; day 21; p=0.09", "description": "α-Smooth muscle actin assay. De novo appearance of myofibroblasts is a hallmark of active fibrosis, and these cells are known as the primary source of interstitial collagen in pulmonary fibrosis (See e.g., K Zhang et al., Am. J. Pathol, 145:114-125 [1994]). Since α-smooth muscle actin is a marker of myofibroblast differentiation, the level of this protein in lung tissue homogenates was measured by ELISA as before (use same reference above for TGFβ assay by ELISA)."}, "[7]": {"tested_on": "IL-1β", "test": "Plasma IL-1β in Con A treated mice", "format": "in vivo, mouse", "conditions": "Ex 5 Exp 3; p=0.15", "text": "In a third experiment, two Con A injections one week apart were given to 10 mice. Five of the mice had begun TM treatment 5 days prior to the first injection. All the mice were sacrificed 2 hrs after the last Con A injection."}, "[8]": {"tested_on": "LEC rat model", "conditions": "LEC rats, late stages of liver disease; cited from earlier work"}, "[9]": {"tested_on": "TNFα", "test": "Lung TNFα mRNA by real time RT-PCR, bleomycin model", "format": "in vivo, mouse", "conditions": "Ex 2 Exp 1; bleomycin/TM; day 7", "description": "Cytokine assays. Expression of TNFα and TGFβ was determined in lung tissues from the various experiments. TNFα mRNA was measured in total RNA isolated from lung tissue homogenates. Primer Express 2.0 software (Applied Biosystems, Foster City, Calif.) was used to design Taqman primers and MGB probes (6-FAM conjugated) for TNFα, which were then purchased from Applied Biosystems (PE/ABI, Foster City, Calif.). Primers and probes for GAPDH were purchased from PE/ABI. GAPDH mRNA was used as internal control to normalize the amount of input RNA. One-step real time RT-PCR was undertaken with Taqman One Step RT-PCR Master Mix (PE/ABI) using a GeneAmp 5700 Sequence Detection System (PE/ABI). Results were expressed as the threshold cycle (CT) at which an increase of reporter fluorescence (ΔRn) can first be detected. The levels of TNFα mRNA were normalized to the internal control GAPDH signals and expressed as 2^−ΔΔCT."}}, "note": "Like-named read-outs stand apart in the source and are kept apart here.", "data": [{"smiles": "[SH-].[SH-].[S]=[Mo]=[S]", "note": "[TM, tetrathiomolybdate]", "values": [{"measurement": "Ceruloplasmin", "setting": "[1]; Ex 1 Exp 1, Bleomycin/TM group, sacrifice day 21", "value": "13.9 ± 3.3", "unit": "I.U"}, {"measurement": "mean ceruloplasmin relative to saline controls", "setting": "[1]; Ex 1 Exp 1, TM alone (group 4)", "value": "about 80%"}, {"measurement": "Ceruloplasmin", "setting": "[1]; Ex 1 Exp 1, TM only group, sacrifice day 21", "value": "18.1 ± 3.4", "unit": "I.U"}, {"measurement": "mean ceruloplasmin level relative to bleomycin animals", "setting": "[1]; Ex 1 Exp 1, bleomycin/TM mice (group 3)", "value": "about 55%"}, {"measurement": "Ceruloplasmin Values", "setting": "[1]; TM 0.3 mg/day/mouse, day 14, single mouse", "value": 23.6, "unit": "International Units"}, {"measurement": "Ceruloplasmin Values", "setting": "[1]; TM 0.3 mg/day/mouse, day 21 (sacrifice), mean and standard error of four mice", "value": "5.4 ± 2.7", "unit": "International Units"}, {"measurement": "Ceruloplasmin Values", "setting": "[1]; TM 0.5 mg/day/mouse, day 8, single mouse", "value": 14.4, "unit": "International Units"}, {"measurement": "Ceruloplasmin Values", "setting": "[1]; TM 0.5 mg/day/mouse, day 14, single mouse", "value": 10.6, "unit": "International Units"}, {"measurement": "Ceruloplasmin Values", "setting": "[1]; TM 0.5 mg/day/mouse, day 21, mean and SE of four mice", "value": "4.5 ± 2.7", "unit": "International Units"}, {"measurement": "Ceruloplasmin Values", "setting": "[1]; TM 0.7 mg/day/mouse, day 8, single mouse", "value": 12.6, "unit": "International Units"}, {"measurement": "Ceruloplasmin Values", "setting": "[1]; TM 0.7 mg/day/mouse, day 14, single mouse", "value": 15.5, "unit": "International Units"}, {"measurement": "Ceruloplasmin Values", "setting": "[1]; TM 0.7 mg/day/mouse, day 21, mean and SE of four mice", "value": "4.7 ± 2.2", "unit": "International Units"}, {"measurement": "Ceruloplasmin Values", "setting": "[1]; TM 0.9 mg/day/mouse, day 8, single mouse", "value": 0.6, "unit": "International Units"}, {"measurement": "Ceruloplasmin Values", "setting": "[1]; TM 0.9 mg/day/mouse, day 14, single mouse", "value": 3.7, "unit": "International Units"}, {"measurement": "Ceruloplasmin Values", "setting": "[1]; TM 0.9 mg/day/mouse, day 21, mean and SE of four mice", "value": "1.8 ± 0.7", "unit": "International Units"}, {"measurement": "Ceruloplasmin Values", "setting": "[1]; TM maintenance 0.3 mg/day/mouse, day 8, single mouse", "value": 20.3, "unit": "International Units"}, {"measurement": "mean Cp levels in TM treated groups relative to non-TM treated groups", "setting": "[1]; Ex 2 Exp 1, TM 1.2 mg/day 4 days before bleomycin then 0.9 mg/day, sacrifice day 7", "value": "approximately half"}, {"measurement": "mean Cp level of bleomycin/TM group as % of the bleomycin group mean", "setting": "[1]; Ex 2 Exp 2, TM started 5 days after bleomycin, sacrifice day 21", "value": 38, "unit": "%"}, {"measurement": "mean Cp of TM control group as % of the saline control group mean", "setting": "[1]; Ex 2 Exp 2, sacrifice day 21", "value": 50, "unit": "%"}, {"measurement": "serum Cp levels relative to baseline levels", "setting": "[1]; daily gavage of 0.7 mg TM/mouse", "value": "25-50%"}, {"measurement": "liver histology", "setting": "[2]; CT/TM treated liver", "value": "essentially normal"}, {"measurement": "liver fibrosis as evaluated by hydroxyproline", "setting": "[2]; CT/TM, after week 12", "value": "blocks all fibrosis"}, {"measurement": "time to induce patients into the Cp target range", "setting": "[3]", "value": "15 to 25", "unit": "days"}, {"measurement": "effects on copper levels (plasma ceruloplasmin, liver and kidney copper)", "setting": "[4]; approximately 6 mg of TM per kilogram of diet", "value": "substantial effects on copper levels"}, {"measurement": "anemia", "setting": "[4]; approximately 12 mg of TM per kilogram of diet", "value": "Mild anemia"}, {"measurement": "skeletal lesions", "setting": "[4]; approximately 12 mg of TM", "value": "one of six animals"}, {"measurement": "anemia", "setting": "[4]; approximately 18 mg of TM", "value": "severe"}, {"measurement": "growth rate", "setting": "[4]; approximately 18 mg of TM", "value": "markedly impaired"}, {"measurement": "skeletal lesions", "setting": "[4]; approximately 18 mg of TM", "value": "all animals had skeletal lesions"}, {"measurement": "serum ALT, CT/TM group mean vs CT group", "setting": "[5]", "value": "significantly lower"}, {"measurement": "lung SMA (α-smooth muscle actin) protein levels, bleomycin-induced increase", "setting": "[6]", "value": "inhibited most of the increase"}, {"measurement": "plasma levels of IL-1β", "setting": "[7]", "value": "close to being significantly lower"}, {"measurement": "efficacy against copper toxicity / liver disease", "setting": "[8]", "value": "very effective"}, {"measurement": "lung TNFα mRNA levels, bleomycin-induced increase", "setting": "[9]", "value": "almost completely, and significantly, inhibited this increase"}]}]}
